Data as given in patent US7906522B2, “2-aminoquinazoline derivatives” (Kyowa Hakko Kirin Co., Ltd, priority 2005, dated 2011).

Assays:
[1] = target: T1, Activated human p38α (Homo sapiens, UniProt Q16539); assay: p38MAP kinase inhibition test; assay type: biochemical; conditions: at a concentration of 1 μmol/L; substrate myelin basic protein, ATP 20 μmol/L, [γ-32P]ATP; read-out: enzyme inhibitory activity
T1 construct: purchased Upstate Biotechnology Inc. 14-251
Outline: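 Radiometric kinase assay with myelin basic protein (20 μg/assay) as substrate, 20 μmol/L ATP plus [γ-32P]ATP, MOPS pH 7.2 with MgCl2 18.75 mmol/L. Reaction run 15 min at 30° C., stopped with phosphoric acid; 32P-MBP captured on phosphocellulose and counted by scintillation.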

T1 sequence (Q16539 whole entry): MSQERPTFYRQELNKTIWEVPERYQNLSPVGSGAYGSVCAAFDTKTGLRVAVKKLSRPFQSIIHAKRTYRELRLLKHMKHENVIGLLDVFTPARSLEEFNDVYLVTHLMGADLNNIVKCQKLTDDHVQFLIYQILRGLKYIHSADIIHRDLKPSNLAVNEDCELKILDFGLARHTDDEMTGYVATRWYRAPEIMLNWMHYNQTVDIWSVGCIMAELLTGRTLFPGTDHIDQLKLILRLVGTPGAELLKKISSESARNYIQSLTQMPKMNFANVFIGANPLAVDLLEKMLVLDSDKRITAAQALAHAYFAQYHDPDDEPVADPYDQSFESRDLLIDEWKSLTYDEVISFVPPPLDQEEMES

Structure (SMILES) | inhibition at 1 µM [1] [%] | melting point
CCS(=O)(=O)N1CCC(Nc2ncc3cc(-c4ccccc4Cl)c(O)cc3n2)CC1 [Compound 161, 6-(2-Chlorophenyl)-2-[1-(ethylsulfonyl)piperidin-4-ylamino]-7-hydroxyquinazoline] | ≥ 50 | 251 to 253 °C
CC[C@H](C)Nc1ncc2cc(-c3ccccc3Cl)c(O)cc2n1 [Compound 163, (S)-2-(sec-Butylamino)-6-(2-chlorophenyl)-7-hydroxyquinazoline] | ≥ 50 | 173 to 175 °C
CC[C@H](C)Nc1ncc2cc(-c3ccccc3C)c(O)cc2n1 [Compound 169, (S)-2-(sec-Butylamino)-7-hydroxy-6-(2-methylphenyl)quinazoline] | ≥ 50 | 165 °C
CCC(CC)Nc1ncc2cc(-c3ccccc3C)c(O)cc2n1 [Compound 170, 2-(3-Pentylamino)-7-hydroxy-6-(2-methylphenyl)quinazoline] | ≥ 50 | 198 to 200 °C
Cc1ccccc1-c1cc2cnc(NC3CCCCC3)nc2cc1O [Compound 171, 2-(Cyclohexylamino)-7-hydroxy-6-(2-methylphenyl)quinazoline] | ≥ 50 | 158 °C
Cc1ccccc1-c1cc2cnc(Nc3c(C)cccc3C)nc2cc1O [Compound 175, 2-(2,6-Dimethylanilino)-7-hydroxy-6-(2-methylphenyl)quinazoline] | ≥ 50 | 220 to 222 °C
Cc1ccccc1-c1cc2cnc(Nc3c(Cl)cccc3Cl)nc2cc1O [Compound 176, 2-(2,6-Dichloroanilino)-7-hydroxy-6-(2-methylphenyl)quinazoline] | ≥ 50 | 226 to 227 °C
Cc1ccccc1-c1cc2cnc(Nc3ccccc3)nc2cc1O [Compound 178, 2-Anilino-7-hydroxy-6-(2-methylphenyl)quinazoline] | ≥ 50 | 234 to 236 °C
CCc1cccc(C)c1Nc1ncc2cc(-c3ccccc3C)c(O)cc2n1 [Compound 180, 2-(2-Ethyl-6-methylanilino)-7-hydroxy-6-(2-methylphenyl)quinazoline] | ≥ 50 | 130 to 133 °C
COc1cc2nc(NC(C)C)ncc2cc1-c1cc(C(=O)NC2CC2)ccc1C [Compound 236, 6-(5-Cyclopropylcarbamoyl-2-methylphenyl)-2-isopropylamino-7-methoxyquinazoline] | ≥ 50 | 122 to 125 °C
CS(=O)(=O)N1CCC(Nc2ncc3cc(-c4cccc(O)c4)c(O)cc3n2)CC1 [Compound 247, 7-Hydroxy-6-(3-hydroxyphenyl)-2-[1-(methylsulfonyl)piperidin-4-ylamino]quinazoline] | ≥ 50 | 285 to 290 °C
CC(C)Nc1ncc2cc(-c3cccc(NC(=O)c4ccnc(N5CCOCC5)c4)c3)c(O)cc2n1 [Compound 290, 7-Hydroxy-2-isopropylamino-6-{3-[(2-morpholinopyridin-4-yl)carbonylamino]phenyl}quinazoline] | ≥ 50 | 258 °C
CC(C)Nc1ncc2cc(-c3cccc(NC(=O)c4cccc(N(C)C)c4)c3)c(O)cc2n1 [Compound 291, 6-{3-[(3-Dimethylaminophenyl)carbonylamino]phenyl}-7-hydroxy-2-(isopropylamino)quinazoline] | ≥ 50 | 150 °C
Cc1cc(C)c(Nc2ncc3cc(-c4ccccc4C)c(O)cc3n2)c(C)c1 [Compound 300, 7-Hydroxy-6-(2-methylphenyl)-2-(2,4,6-trimethylanilino)quinazoline] | ≥ 50 | 142 °C
Cc1cccc(C)c1Nc1ncc2cc(-c3cccc(NC(=O)c4ccnc(N5CCOCC5)c4)c3)c(O)cc2n1 [Compound 312, 2-(2,6-Dimethylanilino)-7-hydroxy-6-{3-[(2-morpholinopyridin-4-yl)carbonylamino]phenyl}quinazoline] | ≥ 50 | 185 °C
Cc1ccc(C(=O)NC2CC2)cc1-c1cc2cnc(Nc3c(C)cccc3C)nc2cc1O [Compound 317, 6-(5-Cyclopropylcarbamoyl-2-methylphenyl)-2-(2,6-dimethylanilino)-7-hydroxyquinazoline] | ≥ 50 | 210 to 213 °C
Cc1ccc(C(=O)NC2CC2)cc1-c1cc2cnc(Nc3c(Cl)cccc3Cl)nc2cc1O [Compound 319, 6-(5-Cyclopropylcarbamoyl-2-methylphenyl)-2-(2,6-dichloroanilino)-7-hydroxyquinazoline] | ≥ 50 | 190 to 193 °C

Structure (SMILES) | inhibition at 1 µM [1] [%] | melting point
Cc1ccc(C(=O)NC2CC2)cc1-c1cc2cnc(NC(C)C)nc2cc1O [Compound 322, 6-(5-Cyclopropylcarbamoyl-2-methylphenyl)-7-hydroxy-2-(isopropylamino)quinazoline] | ≥ 50 | 156 to 160 °C
Cc1ccc(C(=O)Nc2cccc(N(C)C)c2)cc1-c1cc2cnc(NC(C)C)nc2cc1O [Compound 324, 6-{5-[(3-Dimethylaminophenyl)carbamoyl]-2-methylphenyl}-7-hydroxy-2-(isopropylamino)quinazoline] | ≥ 50 | 217 to 218 °C
CC(C)Nc1ncc2cc(-c3cccc(C(=O)Nc4cccc(N(C)C)c4)c3)c(O)cc2n1 [Compound 325, 6-{3-[(3-Dimethylaminophenyl)carbamoyl]phenyl}-7-hydroxy-2-(isopropylamino)quinazoline] | ≥ 50 | 236 °C
CC(C)Nc1ncc2cc(-c3cccc(C(=O)Nc4cccc(N5CCOCC5)c4)c3)c(O)cc2n1 [Compound 328, 7-Hydroxy-2-isopropylamino-6-{3-[(3-morpholinophenyl)carbamoyl]phenyl}quinazoline] | ≥ 50 | 248 to 249 °C
CC(C)Nc1ncc2cc(-c3cccc(C(=O)Nc4cccc(N5CCCC5)c4)c3)c(O)cc2n1 [Compound 330, 7-Hydroxy-2-isopropylamino-6-{3-[3-(pyrrolidin-1-yl)phenylcarbamoyl]phenyl}quinazoline] | ≥ 50 | 251 to 253 °C
CC(C)Nc1ncc2cc(-c3cccc(NC(=O)c4cc(F)cc(N5CCOCC5)c4)c3)c(O)cc2n1 [Compound 332, 6-[3-(3-Fluoro-5-morpholinobenzoylamino)phenyl]-7-hydroxy-2-(isopropylamino)quinazoline] | ≥ 50 | 217 to 219 °C
CC(C)Nc1ncc2cc(-c3cccc(C(=O)NC4CC4)c3)c(O)cc2n1 [Compound 334, 6-[3-(Cyclopropylcarbamoyl)phenyl]-7-hydroxy-2-(isopropylamino)quinazoline] | ≥ 50 | 250 °C (dec.)
CC(C)Nc1ncc2cc(-c3cccc(NC(=O)c4ccnc(N5CCCC5)c4)c3)c(O)cc2n1 [Compound 336, 7-Hydroxy-2-isopropylamino-6-{3-[2-(pyrrolidin-1-yl)pyridin-4-ylcarbonylamino]phenyl}quinazoline] | ≥ 50 | 248 to 249 °C
COc1ccc(C(F)(F)F)cc1NC(=O)c1ccc(C)c(-c2cc3cnc(NC(C)C)nc3cc2O)c1 [Compound 338, 7-Hydroxy-2-isopropylamino-6-{5-[(2-methoxy-5-trifluoromethylphenyl)carbamoyl]-2-methylphenyl}quinazoline] | ≥ 50 | 280 to 281 °C
CC(C)Nc1ncc2cc(-c3cccc(NC(=O)c4cccc(N5CCOCC5)c4)c3)c(O)cc2n1 [Compound 340, 7-Hydroxy-2-isopropylamino-6-[3-(3-morpholinobenzoylamino)phenyl]quinazoline] | ≥ 50 | 230 °C
CC(C)Nc1ncc2cc(-c3cccc(C(=O)Nc4ccnc(N5CCOCC5)c4)c3)c(O)cc2n1 [Compound 342, 7-Hydroxy-2-isopropylamino-6-{3-[(2-morpholinopyridin-4-yl)carbamoyl]phenyl}quinazoline] | ≥ 50 | 255 to 257 °C
Cc1c(F)cc(C(=O)NC2CC2)cc1-c1cc2cnc(NC(C)C)nc2cc1O [Compound 344, 6-(5-Cyclopropylcarbamoyl-3-fluoro-2-methylphenyl)-7-hydroxy-2-(isopropylamino)quinazoline] | ≥ 50 | 175 to 177 °C
Cc1ccc(NC(=O)c2ccnc(N3CCOCC3)c2)cc1-c1cc2cnc(NC(C)C)nc2cc1O [Compound 346, 7-Hydroxy-2-isopropylamino-6-{2-methyl-5-[(2-morpholinopyridin-4-yl)carbonylamino]phenyl}quinazoline] | ≥ 50 | 169 to 172 °C
COc1c(NC(=O)c2ccc(C)c(-c3cc4cnc(NC(C)C)nc4cc3O)c2)cc(C(C)(C)C)cc1NS(C)(=O)=O [Compound 348, 6-{5-[(5-tert-Butyl-2-methoxy-3-methylsulfonylaminophenyl)carbamoyl]-2-methylphenyl}-7-hydroxy-2-(isopropylamino)quinazoline] | ≥ 50 | 251 to 253 °C
CC(C)Nc1ncc2cc(-c3cccc(NC(=O)c4ccnc(N5CCCCC5)c4)c3)c(O)cc2n1 [Compound 349, 7-Hydroxy-2-isopropylamino-6-{3-[(2-piperidinopyridin-4-yl)carbonylamino]phenyl}quinazoline] | ≥ 50 | 226 to 227 °C
CC(C)Nc1ncc2cc(-c3cccc(NC(=O)c4cc(F)cc(N5CCCC5)c4)c3)c(O)cc2n1 [Compound 351, 6-{3-[3-Fluoro-5-(pyrrolidin-1-yl)benzoylamino]phenyl}-7-hydroxy-2-(isopropylamino)quinazoline] | ≥ 50 | 229 °C
